Two compounds from US7741064B2, “Materials and methods relating to G-protein coupled receptor oligomers” (The University Court of the University of Glasgow, priority 2003, dated 2010) can be followed below.

Changes are numbered by the printed parent chain. Entries after “also recorded” stand apart in the source; their conditions may differ.

Experiment [1] concerns the target T1, Leu151Aspα1b-adrenoceptor-G11α co-expressed with histamine H1 receptor-Gly208Ala G11α (UniProt P18841+P35367, L151D).
T1 construct: the full length c-myc-tagged α1b-adrenoceptor-G11α fusion protein; expressed in transfected cells; host or cells: EF88 mouse embryo fibroblasts (Gqα/G11α double knock-out)
It counts as cell-based. The conditions noted are these: EF88 cells; phenylephrine 10 μM, histamine 1 mM (FIG. 7B).

Experiment [2] deals with wild type histamine H1 receptor-G11α fusion protein (Homo sapiens, UniProt P35367). The note with it: HEK293 membranes; 1 mM histamine (FIG. 5(1)). As for the experimental part: (§1) [^35S]GTPγS binding experiments were initiated by the addition of membranes containing defined amounts of the fusion constructs (see Results for details) to an assay buffer (20 mM HEPES (pH 7.4), 3 mM MgCl2, 100 mM NaCl, 1 μM guanosine 5′-diphosphate, 0.2 mM ascorbic acid, 50 nCi [^35S]GTPγS) containing the indicated concentrations of receptor ligands. Non-specific binding was determined in the same conditions but in the presence of 100 μM GTPγS. Reactions were incubated for 15 min at 30° C. and were terminated by the addition of 0.5 ml of ice cold buffer, containing 20 mM HEPES (pH 7.4), 3 mM MgCl2 and 100 mM NaCl.
(§2) Finally, the immunocomplexes were washed twice with solubilization buffer, and bound [^35S]GTPγS measured by liquid-scintillation spectrometry.

Experiment [3] addresses Leu133Asp histamine H1 receptor-G11α fusion protein (Homo sapiens, UniProt P35367, L133D). The conditions noted are these: HEK293 membranes; 1 mM histamine (FIG. 5(3)). As for the experimental part: as §1, §2
Experiment [4] concerns the target co-expressed histamine H1 receptor-Gly208AlaG11α + Leu133Asp histamine H1 receptor-G11α (Homo sapiens, UniProt P35367, L133D). The conditions noted are these: HEK293 membranes; two mutants co-expressed; 1 mM histamine (FIG. 5(4)). As for the experimental part:
as §1, §2

For experiment [5], the target named is histamine H1 receptor-Gly208Ala G11α fusion protein (UniProt P21278+P35367, G208A). The note with it: HEK293 membranes; 1 mM histamine (FIG. 5(2)). As for the experimental part:
as §1, §2

For experiment [6], the target named is T2, Leu133Asp histamine H1 receptor-G11α co-expressed with α1b-adrenoceptor-Gly208Ala G11α (UniProt P18841+P35367, L133D).
T2 construct: the full length c-myc-tagged α1b-adrenoceptor-G11α fusion protein; expressed in transfected cells; host or cells: EF88 mouse embryo fibroblasts (Gqα/G11α double knock-out)
As to the kind of experiment: [Ca2+]i imaging in EF88 cells. It counts as cell-based. The conditions noted are these: phenylephrine 10 μM, histamine 1 mM (FIG. 7A). As for the experimental part:
EF88 cells were grown in DMEM supplemented with 10% (v/v) heat inactivated foetal bovine serum and L-glutamine (1 mM) in a 95% air and 5% CO2 atmosphere at 37° C. A portion of the cells harvested during trypsinization were plated on to glass coverslips and after a 24 h growth period they were transfected using LipofectAMINE (Life Technologies Inc.) according to the manufacturers' instructions. After 3 h cells were washed twice with OPTIMEM 1 and then cultured in DMEM growth medium for a further 24 h. A total of 3 μg of pCDNA3 containing the relevant cDNA species were used to transfect each coverslip. Transfected EF88 cells were loaded with the Ca^2+-sensitive dye Fura-2 by incubation (15-20 min, 37° C.) under reduced light in DMEM growth medium containing the dye's membrane-permanent acetoxymethylester form (1.5 μM).

The target of experiment [7] is histamine H1 receptor-G11α fusion co-expressed with isolated Leu151Asp α1b-adrenoceptor (UniProt P21278+P35367). The conditions noted are these: in comparison to membranes expressing the same level of only the histamine H1 receptor-G11α fusion; 1 mM histamine (FIG. 12A).
Experiment [8] deals with histamine H1 receptor-G11α co-transfected with Leu151Asp α1b-adrenoceptor (UniProt P21278+P35367). The note with it: EF88 cells; 1 mM histamine; versus histamine H1 receptor-G11α alone (FIG. 12B).
Experiment [9] deals with T3, co-expressed α1b-adrenoceptor-Gly208AlaG11α + Leu151Aspα1b-adrenoceptor-G11α (Mesocricetus auratus, UniProt P18841, L151D).
T3 construct: the full length c-myc-tagged α1b-adrenoceptor-G11α fusion protein; expressed in transfected cells; host or cells: HEK293 (membranes)
As to the kind of experiment: [35S]GTPγS binding, membranes of HEK293 cells. It counts as biochemical. The note with it: two non-functional mutants co-expressed, 10 μM phenylephrine (FIG. 4A(4)). In general terms: GTPγS is a poorly hydrolysed GTP analogue; its binding reports G protein activation.
Description: (§3) [^35S]GTPγS binding experiments were initiated by the addition of membranes containing defined amounts of the fusion constructs (see Results for details) to an assay buffer (20 mM HEPES (pH 7.4), 3 mM MgCl2, 100 mM NaCl, 1 μM guanosine 5′-diphosphate, 0.2 mM ascorbic acid, 50 nCi [^35S]GTPγS) containing the indicated concentrations of receptor ligands. Non-specific binding was determined in the same conditions but in the presence of 100 μM GTPγS. Reactions were incubated for 15 min at 30° C. and were terminated by the addition of 0.5 ml of ice cold buffer, containing 20 mM HEPES (pH 7.4), 3 mM MgCl2 and 100 mM NaCl. The samples were centrifuged at 16,000 g for 15 min at 4° C., and the resulting pellets were resuspended in solubilization buffer (100 mM Tris, 200 mM NaCl, 1 mM EDTA, 1.25% Nonidet P-40) plus 0.2% sodium dodecylsulfate. Samples were precleared with Pansorbin (Calbiochem), followed by immunoprecipitation with CQ antiserum (Mitchell et al., 1993).

The target in experiment [10] is T4, α1b-adrenoceptor-Gly208AlaG11α fusion protein (UniProt P18841+P21278, G208A).
T4 construct: the full length c-myc-tagged α1b-adrenoceptor-G11α fusion protein; expressed in transfected cells; host or cells: HEK293 (membranes)
As to the kind of experiment: [35S]GTPγS binding, membranes of HEK293 cells. It counts as biochemical. The note with it: 10 μM phenylephrine (FIG. 4A(2)).
Description: as §3

The subject of another experiment is c-myc-Nt-TM1α1b-G11α. Kind of experiment: [35S]GTPγS binding recovered in anti-c-myc immunoprecipitates, HEK293 cells. It counts as biochemical. The note with it: 10 μM phenylephrine (FIG. 13B).
The target in experiment [11] is T5, wild type α1b-adrenoceptor-G11α fusion protein (Mesocricetus auratus, UniProt P18841).
T5 construct: the full length c-myc-tagged α1b-adrenoceptor-G11α fusion protein; expressed in transfected cells; host or cells: HEK293 (membranes)
T5 sequence (P18841 1-515): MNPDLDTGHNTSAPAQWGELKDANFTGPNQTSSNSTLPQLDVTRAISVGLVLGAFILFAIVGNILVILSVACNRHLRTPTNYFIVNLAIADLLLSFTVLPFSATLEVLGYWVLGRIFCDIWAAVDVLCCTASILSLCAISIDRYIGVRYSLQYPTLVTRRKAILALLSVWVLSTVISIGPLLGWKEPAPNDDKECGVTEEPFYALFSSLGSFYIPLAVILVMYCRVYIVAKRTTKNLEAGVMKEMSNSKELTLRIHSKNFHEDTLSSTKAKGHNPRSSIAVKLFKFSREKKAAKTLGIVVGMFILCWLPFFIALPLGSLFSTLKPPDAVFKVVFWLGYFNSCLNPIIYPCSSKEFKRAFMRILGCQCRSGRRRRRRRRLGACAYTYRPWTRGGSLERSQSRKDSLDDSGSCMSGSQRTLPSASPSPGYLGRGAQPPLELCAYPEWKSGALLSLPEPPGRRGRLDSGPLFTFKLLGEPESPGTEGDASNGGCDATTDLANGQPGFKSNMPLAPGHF
Kind of experiment: [35S]GTPγS binding, membranes of HEK293 cells. It counts as biochemical. The note with it: 10 μM phenylephrine (FIG. 4A).
Description: as §3

Experiment [12] has as its target T6, Leu151Aspα1b-adrenoceptor-G11α fusion protein (Mesocricetus auratus, UniProt P18841, L151D).
T6 construct: the full length c-myc-tagged α1b-adrenoceptor-G11α fusion protein; expressed in transfected cells; host or cells: HEK293 (membranes)
T6 sequence (P18841 1-515 L151D): T5 sequence (P18841 1-515) with L151D
As to the kind of experiment: [35S]GTPγS binding, membranes of HEK293 cells. It counts as biochemical. The conditions noted are these: 10 μM phenylephrine (FIG. 4A(3)).
Description: as §3

T1 sequence (P21278 whole entry G208A, the tested form may be a part): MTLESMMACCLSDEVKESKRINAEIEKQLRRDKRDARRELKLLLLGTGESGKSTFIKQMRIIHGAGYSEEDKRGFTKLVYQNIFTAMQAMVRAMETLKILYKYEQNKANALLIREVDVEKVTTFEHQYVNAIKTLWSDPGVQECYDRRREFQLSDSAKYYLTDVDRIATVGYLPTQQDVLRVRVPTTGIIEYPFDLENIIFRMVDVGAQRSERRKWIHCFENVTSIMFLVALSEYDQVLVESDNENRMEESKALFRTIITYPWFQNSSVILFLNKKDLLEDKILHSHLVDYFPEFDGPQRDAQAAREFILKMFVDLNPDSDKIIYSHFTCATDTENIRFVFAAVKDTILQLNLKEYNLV
T1 sequence (P18841 whole entry L151D, the tested form may be a part): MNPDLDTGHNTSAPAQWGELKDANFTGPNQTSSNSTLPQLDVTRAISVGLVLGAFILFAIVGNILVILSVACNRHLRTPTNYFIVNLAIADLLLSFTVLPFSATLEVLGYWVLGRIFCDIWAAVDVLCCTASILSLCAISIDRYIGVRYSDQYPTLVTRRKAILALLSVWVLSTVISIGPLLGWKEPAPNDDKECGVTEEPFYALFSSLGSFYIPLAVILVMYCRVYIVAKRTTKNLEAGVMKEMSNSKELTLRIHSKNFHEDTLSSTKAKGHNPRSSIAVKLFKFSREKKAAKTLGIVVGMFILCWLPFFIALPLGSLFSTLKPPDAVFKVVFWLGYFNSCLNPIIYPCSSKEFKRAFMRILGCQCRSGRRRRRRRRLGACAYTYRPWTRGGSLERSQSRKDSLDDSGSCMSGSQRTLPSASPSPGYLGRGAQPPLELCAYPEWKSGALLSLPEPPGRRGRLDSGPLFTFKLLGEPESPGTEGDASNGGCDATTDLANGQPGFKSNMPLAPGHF
T1 sequence (P21278 whole entry, stated change not applied, the tested form may be a part): as the sequence (P21278 whole entry G208A, the tested form may be a part) above, with A208G counted along it
T1 sequence (P35367 whole entry, the tested form may be a part): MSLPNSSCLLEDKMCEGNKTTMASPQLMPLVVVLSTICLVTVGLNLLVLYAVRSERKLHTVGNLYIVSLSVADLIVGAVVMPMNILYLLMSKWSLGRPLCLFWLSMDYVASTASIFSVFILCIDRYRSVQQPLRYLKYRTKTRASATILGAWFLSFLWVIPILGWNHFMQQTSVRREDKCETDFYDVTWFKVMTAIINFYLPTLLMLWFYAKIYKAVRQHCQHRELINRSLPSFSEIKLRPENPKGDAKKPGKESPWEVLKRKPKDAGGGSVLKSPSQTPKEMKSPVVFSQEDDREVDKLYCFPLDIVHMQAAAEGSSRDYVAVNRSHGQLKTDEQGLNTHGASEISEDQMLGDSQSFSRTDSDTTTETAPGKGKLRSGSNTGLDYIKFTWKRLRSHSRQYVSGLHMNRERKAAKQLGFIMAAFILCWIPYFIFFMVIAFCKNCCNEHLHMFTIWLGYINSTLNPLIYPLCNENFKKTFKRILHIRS
T2 sequence (P35367 whole entry L133D, one chain of several, the tested form may be a part): as the sequence (P35367 whole entry, the tested form may be a part) above, with L133D counted along it
T2 sequence (P21278 whole entry partner, one chain of several, the tested form may be a part): as the sequence (P21278 whole entry G208A, the tested form may be a part) above, with A208G counted along it
T2 sequence (P21278 whole entry G208A partner, one chain of several, the tested form may be a part): as the sequence (P21278 whole entry G208A, the tested form may be a part) above
T4 sequence (P18841+P21278 fused P21278:G208A): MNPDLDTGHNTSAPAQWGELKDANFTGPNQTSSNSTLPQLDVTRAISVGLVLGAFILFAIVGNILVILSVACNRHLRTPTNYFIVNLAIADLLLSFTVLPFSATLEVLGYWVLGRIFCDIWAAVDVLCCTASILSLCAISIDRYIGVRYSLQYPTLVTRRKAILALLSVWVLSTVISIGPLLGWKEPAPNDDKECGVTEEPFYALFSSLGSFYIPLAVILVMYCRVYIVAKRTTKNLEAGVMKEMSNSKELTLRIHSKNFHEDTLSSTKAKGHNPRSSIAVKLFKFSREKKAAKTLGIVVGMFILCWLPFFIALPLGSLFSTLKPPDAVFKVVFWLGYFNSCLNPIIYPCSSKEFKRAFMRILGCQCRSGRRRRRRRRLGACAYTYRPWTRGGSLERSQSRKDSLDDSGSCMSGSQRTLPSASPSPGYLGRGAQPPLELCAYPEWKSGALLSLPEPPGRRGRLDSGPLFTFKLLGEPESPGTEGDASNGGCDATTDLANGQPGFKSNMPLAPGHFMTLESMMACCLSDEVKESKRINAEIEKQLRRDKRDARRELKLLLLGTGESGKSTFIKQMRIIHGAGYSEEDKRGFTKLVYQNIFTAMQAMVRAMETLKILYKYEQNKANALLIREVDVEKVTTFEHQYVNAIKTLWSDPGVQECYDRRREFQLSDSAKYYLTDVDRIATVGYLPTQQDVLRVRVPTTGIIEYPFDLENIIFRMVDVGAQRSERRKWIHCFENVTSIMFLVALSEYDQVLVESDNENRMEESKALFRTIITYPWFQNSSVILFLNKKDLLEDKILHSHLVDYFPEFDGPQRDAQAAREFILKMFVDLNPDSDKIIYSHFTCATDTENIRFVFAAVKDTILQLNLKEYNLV
Sequence of histamine H1 receptor-Gly208Ala G11α fusion protein (P35367+P21278 fused P21278:G208A): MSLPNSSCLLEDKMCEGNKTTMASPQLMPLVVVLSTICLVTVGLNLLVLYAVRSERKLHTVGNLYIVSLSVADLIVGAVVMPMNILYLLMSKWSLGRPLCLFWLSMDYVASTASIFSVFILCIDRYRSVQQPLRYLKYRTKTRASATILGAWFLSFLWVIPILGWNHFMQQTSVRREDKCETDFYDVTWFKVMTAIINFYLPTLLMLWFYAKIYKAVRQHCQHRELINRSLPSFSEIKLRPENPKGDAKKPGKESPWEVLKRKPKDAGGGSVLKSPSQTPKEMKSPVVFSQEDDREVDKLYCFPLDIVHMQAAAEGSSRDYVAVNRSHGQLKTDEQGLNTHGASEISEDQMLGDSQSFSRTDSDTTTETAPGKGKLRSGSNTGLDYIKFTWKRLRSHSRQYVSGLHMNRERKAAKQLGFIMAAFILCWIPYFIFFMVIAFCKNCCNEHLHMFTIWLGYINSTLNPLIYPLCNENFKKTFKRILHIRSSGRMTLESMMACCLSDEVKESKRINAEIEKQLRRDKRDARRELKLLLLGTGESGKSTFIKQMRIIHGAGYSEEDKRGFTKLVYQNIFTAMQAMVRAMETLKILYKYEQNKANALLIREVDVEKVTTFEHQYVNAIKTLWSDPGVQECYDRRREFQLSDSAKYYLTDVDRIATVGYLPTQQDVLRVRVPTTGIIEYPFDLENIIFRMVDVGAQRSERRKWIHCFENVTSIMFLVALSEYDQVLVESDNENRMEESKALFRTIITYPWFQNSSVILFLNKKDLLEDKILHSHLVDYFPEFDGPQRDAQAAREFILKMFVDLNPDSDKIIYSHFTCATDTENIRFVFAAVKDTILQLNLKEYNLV
Description for c-myc-Nt-TM1α1b-G11α: as §3

For the compound `NCCc1c[nH]cn1` [histamine], the “elevation of intracellular [Ca2+]” value in [1] is “caused elevation of intracellular [Ca^2+]; also recorded: elevation of intracellular calcium”; in [6], “little or no change”. Further, the “stimulation of [35S]GTPγS binding” value is given as “large stimulation” in experiment [2], “absent” in experiment [3] and “absent” in experiment [5]. Further, the “agonist activation of the G protein ([35S]GTPγS binding)” value in [4] is listed as “reconstituted agonist activation”. In addition, the “histamine stimulation of [35S]GTPγS binding” value in experiment [7] is listed as “significantly reduced”. For the same compound, in experiment [8], the “histamine stimulation of intracellular [Ca2+]” value is “reduced markedly”.

Consider `CNC[C@H](O)c1cccc(O)c1` [phenylephrine], for which the “elevation of intracellular [Ca2+]” value in experiment [1] is “did not; also recorded: little or no change”; in [6], “able to elevate intracellular [Ca^2+]; also recorded: elevation of intracellular calcium concentration”. Also, the “agonist-mediated binding of [35S]GTPγS” value in [9] was “reconstituted phenylephrine-mediated binding”. Also, the “stimulation of [35S]GTPγS binding” value in [10] is listed as “essentially eliminated”; in [12], “unable to stimulate binding”. In addition, the “stimulation of [35S]GTPγS binding in anti-c-myc immunoprecipitates” value in the experiment with c-myc-Nt-TM1α1b-G11α (co-expressed with the isolated α1b-adrenoceptor) is recorded as “did not result in significant stimulation”. In addition, in the experiment with c-myc-Nt-TM1α1b-G11α (construct expressed alone), the “[35S]GTPγS binding in response to agonist” value was “did not bind”. Moreover, in [11], the “stimulation of the binding of [35S]GTPγS” value was “large stimulation”.
